# Results: US9694016B2 (Novartis AG, priority 2013, dated 2017)
# Where two headings read alike, the source gives them in different places.
# Target: b-Raf (V600E) (Homo sapiens (Human), UniProt P15056, V600E)
# Conditions: read-out: b-Raf IC-50, AlphaScreen
# [1] = 60 min pre-incubation, 3 hours reaction
# [2] = 60 min pre-incubation, reaction 3 hours at room temperature
# Chain of b-Raf (V600E) (P15056 whole entry V600E): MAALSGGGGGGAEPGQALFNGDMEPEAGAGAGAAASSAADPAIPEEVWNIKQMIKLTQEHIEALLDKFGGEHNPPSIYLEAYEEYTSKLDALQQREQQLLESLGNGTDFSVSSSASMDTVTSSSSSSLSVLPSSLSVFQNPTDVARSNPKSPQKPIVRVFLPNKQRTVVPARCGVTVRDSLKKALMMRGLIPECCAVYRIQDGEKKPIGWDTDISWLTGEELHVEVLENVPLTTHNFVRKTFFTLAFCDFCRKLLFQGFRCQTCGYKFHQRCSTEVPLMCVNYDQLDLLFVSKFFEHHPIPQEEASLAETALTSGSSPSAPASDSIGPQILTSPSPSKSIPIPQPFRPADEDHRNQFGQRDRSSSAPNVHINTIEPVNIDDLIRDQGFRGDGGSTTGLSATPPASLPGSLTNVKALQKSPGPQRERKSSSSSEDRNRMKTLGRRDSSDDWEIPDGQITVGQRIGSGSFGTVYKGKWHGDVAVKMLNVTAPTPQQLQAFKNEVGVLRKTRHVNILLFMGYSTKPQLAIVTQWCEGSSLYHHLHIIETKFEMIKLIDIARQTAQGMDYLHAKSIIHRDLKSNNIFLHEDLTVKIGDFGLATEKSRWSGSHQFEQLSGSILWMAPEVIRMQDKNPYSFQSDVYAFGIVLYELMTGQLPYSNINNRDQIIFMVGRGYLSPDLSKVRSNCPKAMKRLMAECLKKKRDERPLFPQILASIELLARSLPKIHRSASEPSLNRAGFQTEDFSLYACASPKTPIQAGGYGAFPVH
Structure (SMILES),IC50 [1],IC50 [2],other results
Cn1cc(-c2cc(NC(=O)c3cccc(C(F)(F)F)c3)ccc2F)cc(N2CCOCC2)c1=O [Example 410],–,–,"IC50 (Table 2, 3 hours reaction): 2 nM"
"Cc1ccc(C(=O)Nc2ccccc2)cc1-c1cc(N2CCOCC2)n(C)c(=O)c1 [Example 518, 4-methyl-3-(1-methyl-6-morpholino-2-oxo-1,2-dihydropyridin-4-yl)-N-phenylbenzamide]",79 nM,–,–
"Cc1ncc(NC(=O)c2cccc(S(C)(=O)=O)c2)cc1-c1cc(N2CCOCC2)n(C)c(=O)c1 [Example 509, N-(1′,2-dimethyl-6′-morpholino-2′-oxo-1′,2′-dihydro-[3,4′-bipyridin]-5-yl)-3-(methylsulfonyl)benzamide]",17.3 nM,–,–
"CCOc1ccc(-c2cc(NC(=O)c3ccnc(C(C)(C)F)c3)cnc2C)nc1N1CCOCC1 [Example 1027, N-(5-ethoxy-2′-methyl-6-morpholino-[2,3′-bipyridin]-5′-yl)-2-(2-fluoropropan-2-yl)isonicotinamide]",–,8.48 nM,–
"Cc1ccc(NC(=O)c2ccnc(C(C)(C)C#N)c2)cc1-c1cc(N2CCOCC2)nc(N2CC(C)(O)C2)c1 [Example 1110, 2-(2-cyanopropan-2-yl)-N-(3-(2-(3-hydroxy-3-methylazetidin-1-yl)-6-morpholinopyridin-4-yl)-4-methylphenyl)isonicotinamide]",–,4.82 nM,–
"CCNc1nc(-c2cc(NC(=O)c3ccnc(C(C)(C)C#N)c3)ccc2C)cc(N2CCOC[C@@H]2C)n1 [Example 714, (S)-2-(2-cyanopropan-2-yl)-N-(3-(2-(ethylamino)-6-(3-methylmorpholino)pyrimidin-4-yl)-4-methylphenyl)isonicotinamide]",2.5 nM,–,–
"Cc1ccc(NC(=O)c2cccc(C(F)F)c2)cc1-c1cc(N2CCOCC2)nc(N2CCOCC2)c1 [Example 1116, 3-(difluoromethyl)-N-(3-(2,6-dimorpholinopyridin-4-yl)-4-methylphenyl)benzamide]",–,0.82 nM,–
"Cc1ncc(NC(=O)c2cccc(C(F)(F)F)c2)cc1-c1cnc(OCCO)c(N2CCOCC2)c1 [Example 145, N-(6′-(2-hydroxyethoxy)-2-methyl-5′-morpholino-[3,3′-bipyridin]-5-yl)-3-(trifluoromethyl)benzamide]",–,–,"IC50 (Table 2, 3 hours reaction): 3 nM"
"Cc1ccc(NC(=O)c2cccc(-c3nnco3)c2)cc1-c1cc(N2CCOCC2)c(=O)n(C)c1 [Example 349, N-(4-methyl-3-(1-methyl-5-morpholino-6-oxo-1,6-dihydropyridin-3-yl)phenyl)-3-(1,3,4-oxadiazol-2-yl)benzamide]",–,–,"IC50 (Table 2, 3 hours reaction): 6.2 nM"
"Cc1ncc(NC(=O)c2ccnc(C(F)(F)F)c2)cc1-c1cc(N2CCOCC2)nc(N2CC(O)C2)c1 [Example 1088, N-(2′-(3-hydroxyazetidin-1-yl)-2-methyl-6′-morpholino-[3,4′-bipyridin]-5-yl)-2-(trifluoromethyl)isonicotinamide]",–,4.06 nM,–
"Cc1ccc(NC(=O)c2cc(C(C)(C)O)ccn2)cc1-c1cc(N2CCOCC2)c(=O)n(C)c1 [Example 906, 4-(2-hydroxypropan-2-yl)-N-(4-methyl-3-(1-methyl-5-morpholino-6-oxo-1,6-dihydropyridin-3-yl)phenyl)picolinamide]",–,9.45 nM,–
"Cc1ccc(NC(=O)c2ccnc(S(C)(=O)=O)c2)cc1-c1cc(N2CCOCC2)c(OC2CCOCC2)nn1 [Example 582, N-(4-methyl-3-(5-morpholino-6-((tetrahydro-2H-pyran-4-yl)oxy)pyridazin-3-yl)phenyl)-2-(methylsulfonyl)isonicotinamide]",0.8 nM,–,–

# Continued, in another order:
IC50 [1],IC50 [2],Structure (SMILES),other results
59.8 nM,–,"Cc1ncc(NC(=O)c2cccc(C(C)(C)S(C)(=O)=O)c2)cc1-c1cc(N2CCOCC2)n(C)c(=O)c1 [Example 512, N-(1′,2-dimethyl-6′-morpholino-2′-oxo-1′,2′-dihydro-[3,4′-bipyridin]-5-yl)-3-(2-(methylsulfonyl)propan-2-yl)benzamide]",–
0.8 nM,–,"Cc1ncc(NC(=O)c2cccc(C(F)(F)F)c2)cc1-c1ccc(S(C)(=O)=O)c(N2CCOCC2)c1 [Example 687, N-(6-methyl-5-(4-(methylsulfonyl)-3-morpholinophenyl)pyridin-3-yl)-3-(trifluoromethyl)benzamide]",–
